We go through eight compounds from US4716109A, “Immunoassay” (Boots-Celltech Diagnostics Limited, priority 1983, dated 1987).

Assay [1] has as its target Endothia Parasitica Protease (Cryphonectria parasitica, UniProt P11838). The experiment in a line: Enzyme inhibition with chromogenic peptide substrate. Type of assay: biochemical. From the text:
Enzyme inhibition data was obtained using synthetic peptide substrates containing a chromophoric nitrophenylalanine residue in the position of the scissile bond so that hydroysis can be followed spectrophotometrically. Hydrolysis was followed at 300 nm and the substrate can be used at any pH value (usually between 2-6) at which the enzyme is active. Kinetic parameters for the hydrolysis of a chromogenic peptide substrate by different types of mammalian aspartic proteinases have been reported J. Kay, M. J. Valler and B. M. Dunn, Naturally-occurring inhibitors of Aspartic Proteinases in Proteinase Inhibitors; N. Katunuma, H. Umezawa and H. Holzer Eds., 1983 Springer-Verlag, Berlin (in press).

The subject of assay [2] is Polyclonal antiserum to progesterone HPS 53IIb. Kind of assay: Radioimmunoassay for immunoreactivity with polyclonal antiserum HPS 53IIb. The assay is classed as binding, sheep. The source says: (§1) Polyclonal antisera to progesterone were obtained from the Milk Marketing Board, Veterinary Laboratories, Cleeve House, Lower Wick, Worcester, England and from Guildhay Antisera, Division of Clinical Biochemistry, Department of Biochemistry, University of Surrey, Guildford, Surrey, England. The antiserum from the Milk Marketing Board had been raised against the immunogen progesterone-11α -hemisuccinyl-bovine serum albumin and the Guildhay antiserum raised against progesterone-11α -hemisuccinyl-ovalbumin.
(§2) A radioimmunoassay employing tritiated progesterone and dextran coated charcoal separation of bound and free progesterone was used to assess the immunoreactivity of progesterone derivatives and progesterone-inhibitor conjugates with the monoclonal and polyclonal antisera, by the method of R. B. Heap, R. J. Holdsworth, J. E. Gadsby, J. A. Laing and D. E. Walters, Brit. Vet. J. 1976, 132, 445-464.
Dilutions of chymosin in assay buffer were prepared at 1/1000, 1/1100, 1/1210, 1/1331, 1/1464, 1/1611, 1/1772, 1/1949. 30 μl of each diluted enzyme solution was used in each microtiter well. A solution of the progesterone-inhibitor designated P4SP2, at a concentration of 40 pmol/ml was prepared; 25 μl (1 pmol) being used in each microtiter well. […]

Another assay concerns the target T1, Chymosin (Bos taurus, UniProt P00794).
T1 construct: purchased Sigma Chemical Co. Ltd., or from recombinant prochymosin (E. coli) supplied by Celltech Ltd; host or cells: calf enzyme, or E. coli for the recombinant prochymosin
The experiment in a line: Enzyme inhibition with chromogenic peptide substrate. Type of assay: biochemical, calf. The note with it: pH 6.0. From the text:
Enzyme inhibition data was obtained using synthetic peptide substrates containing a chromophoric nitrophenylalanine residue in the position of the scissile bond so that hydroysis can be followed spectrophotometrically. Hydrolysis was followed at 300 nm and the substrate can be used at any pH value (usually between 2-6) at which the enzyme is active.

The subject of assay [3] is Polyclonal antiserum to progesterone HPS 645IIc. Kind of assay: Radioimmunoassay for immunoreactivity with polyclonal antiserum HPS 645IIc. Type of assay: binding.
From the text: as §1, §2

The test system of assay [4] is Polyclonal antiserum to progesterone (18/3). Type of assay: binding. The note with it: radioimmunoassay, polyclonal antiserum 18/3.
From the text: as §1, §2

Assay [5] deals with Monoclonal progesterone antibody 11P12. The assay is classed as binding. The note with it: radioimmunoassay.
From the text: Monoclonal progesterone antibody was obtained from Dr. Wang of the Imperial Cancer Research Fund Laboratories, Lincolns Inn, London, England. It had been raised against the immunogen progesterone-11 -hemisuccinyl-bovine serum albumin according to the method of V. E. Fantl, D. Y. Wang and R. E. Knyba, J. Steroid Biochem, 1982, 17, 125-130. The monoclonal antibody of choice for use in the specific assay described below is designated 11P12 in the above mentioned publication.
as §2

Assay [6] addresses T2, chymosin milk-clotting activity (Bos taurus, UniProt P00794).
T2 construct: purchased Sigma Chemical Co. Ltd., or from recombinant prochymosin (E. coli) supplied by Celltech Ltd; host or cells: calf enzyme, or E. coli for the recombinant prochymosin
Kind of assay: Milk-clotting assay in microtiter plates. Type of assay: biochemical, calf. As to the method: Milk-clotting assays were carried out in the wells of microtiter plates. In each assay, after a suitable reaction time, the microtiter plate was inverted. Where clotting occurred, the clots remained in the wells of the plate, and where there was no clotting, the contents of the wells were decanted.
The general assay procedure was as follows:
20 μl of assay buffer containing 0.2% bovine serum albumin was pipetted into the wells of a microtiter plate. This was followed by 25 μl of assay buffer alone, or assay buffer containing the desired concentration of progesterone-inhibitor conjugate followed by 25 μl of assay buffer alone, or assay buffer containing the desired concentration of progesterone antibody. Then 30 μl of assay buffer containing the desired concentration of chymosin was added. This was followed by 100 μl of a milk substrate solution. The microtiter plate containing the assay mixture was placed in an incubator at 37° C. for 1 hour. At the end of this time the plate was inverted over a sink and tapped very lightly a few times, and then placed inverted on some tissue paper. The presence of clots was readily observed and either scored on a microtiter plate diagram or alternatively the inverted plate was photocopied against a dark background.
Dilutions of chymosin in assay buffer were prepared at 1/1000, 1/1100, 1/1210, 1/1331, 1/1464, 1/1611, 1/1772, 1/1949. 30 μl of each diluted enzyme solution was used in each microtiter well. A solution of the progesterone-inhibitor designated P4SP2, at a concentration of 40 pmol/ml was prepared; 25 μl (1 pmol) being used in each microtiter well. Dilutions of sheep polyclonal antiserum HPS 53-IIb (supplied by Guildhay Antisera) were prepared at 1/50, 1/100 and 1/200; 25 ul of each dilution being used in each microtiter well.
A 1/50 dilution of antibody to progesterone (HPS53 IIb--Guildhay antisera) was used, together with a fixed concentration of progesterone-inhibitor conjugate P4SP2 (100 pmol/ml). The final concentration of conjugate was 1 pmol/well. Progesterone was dissolved in assay buffer at a concentration of 0.5 nmol/ml, to give a final concentration of 7.5 pmol/well. Incubation mixtures containing 0.571 ml of assay buffer containing 0.2% BSA, 0.714 ml of dilute antibody, 0.429 ml of progesterone in assay buffer and 0.286 ml of inhibitor conjugate were prepared. Control incubates were also prepared in which antibody, progesterone, or both were replaced by equivalent volumes of assay buffer. A similar series of incubation mixtures in which progesterone-inhibitor conjugate was replaced by assay buffer was also prepared. These mixtures were incubated at 4° C. for 2 hours. At the end of the incubation, 70 μl of incubate was transferred to each well in duplicate rows on the microtitre plate. Dilution of a 1 mg/ml solution of chymosin in assay buffer were prepared as follows: 1/1210 1/1331, 1/1464, 1/1611, 1/1772, 1/1949, 1/2144, 1/2358, 1/2594, 1/2835, 1/3138, 1/3452. 30 μl of each dilution was added to each well in a column of the microtitre plates. These dilutions gave a final concentration of 0.71, 0.64, 0.58, 0.53, 0.48, 0.44, 0.40, 0.36, 0.33, 0.30, 0.27 and 0.25 pmol/well. 100 ul of milk substrate was added to each well and the plates were incubated for one hour at 37° C. before checking for clotting. In the absence of progesterone, antibody and progesterone-inhibitor conjugate, the limiting concentration of chymosin necessary for clotting is 0.36 pmol/well. […]

Setting [7] is: Endothia Parasitica Protease, pH 3.1.

Numbered stars: 1 amine (or outer) side, 2 acyl side, 3 side chain; on linkers, the order of the positions; unused ones are H or OH. Square brackets hold non-standard residues; d marks the D form. Peptide text beside a SMILES is read from it. * marks the point of attachment. X3 = CC(=O)[C@H]1CC[C@H]2[C@@H]3CCC4=CC(=O)CC[C@]4(C)[C@H]3[C@H](OCC(=O)*)C[C@]12C; X1 = CC(=O)C1CCC2C3CCC4=CC(=O)CCC4(C)C3C(OC3OC(C(=O)*)C(O)C(O)C3O)CC12C; Sta = CC(C)C[C@H](N)[C@@H](O)CC(=O)O; X2 = CC(C)CC(N[*:1])C(O)CC(=O)[*:2]

Sequence of Endothia Parasitica Protease (P11838 90-419): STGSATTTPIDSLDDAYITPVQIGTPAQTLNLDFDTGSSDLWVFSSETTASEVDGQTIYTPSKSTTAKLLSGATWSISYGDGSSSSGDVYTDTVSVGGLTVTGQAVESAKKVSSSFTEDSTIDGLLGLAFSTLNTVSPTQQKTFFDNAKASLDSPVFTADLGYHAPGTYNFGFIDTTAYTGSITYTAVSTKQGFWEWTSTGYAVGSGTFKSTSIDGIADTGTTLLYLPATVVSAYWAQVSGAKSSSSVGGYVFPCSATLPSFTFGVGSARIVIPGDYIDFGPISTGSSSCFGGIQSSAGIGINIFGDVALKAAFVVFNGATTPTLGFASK
T1 sequence (P00794 59-381): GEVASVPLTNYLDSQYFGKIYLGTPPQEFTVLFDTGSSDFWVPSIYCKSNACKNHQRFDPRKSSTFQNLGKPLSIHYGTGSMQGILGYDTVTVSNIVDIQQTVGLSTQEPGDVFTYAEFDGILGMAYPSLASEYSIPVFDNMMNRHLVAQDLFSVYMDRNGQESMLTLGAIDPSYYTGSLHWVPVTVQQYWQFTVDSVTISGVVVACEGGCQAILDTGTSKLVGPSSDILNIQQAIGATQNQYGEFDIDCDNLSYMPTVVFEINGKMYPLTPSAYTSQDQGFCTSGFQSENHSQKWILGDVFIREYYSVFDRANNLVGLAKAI
T2 sequence (P00794 59-381): as above

What is called Ki is a measure of affinity in units of concentration, obtained from inhibition or displacement. Turning to “Hisleuserphestatalaileproprolyslys [III]”, the affinity in assay [1] (setting [7]) corresponds to a Ki of 0.01 µM.

The compound Achisleuserstualaileproprolyslys [IV] gave a Ki in assay [1] (setting [7]) of 0.006 µM.

For the compound `CC[C@H](C)[C@H](NC(=O)[C@H](C)NC(=O)C[C@H](O)[C@H](CC(C)C)NC(=O)[C@H](CO)NC(=O)[C@H](CC(C)C)NC(=O)CO[C@@H]1C[C@]2(C)[C@@H](C(C)=O)CC[C@H]2[C@@H]2CCC3=CC(=O)CC[C@]3(C)[C@H]21)C(=O)N1CCC[C@H]1C(=O)N1CCC[C@H]1C(=O)N[C@@H](CCCCN)C(=O)N[C@@H](CCCCN)C(=O)O` [VII] (X3-LS[Sta]AIPPKK-OH), the “Immunoreactivity Polyclonal (HPS 53IIb)” value in assay [2] amounted to 42.1%. Further, the inhibition constant Ki at Chymosin turned out to be 0.0067 µM; in assay [1] (Endothia, pH 6.0), 0.026 µM. Moreover, the “Immunoreactivity Polyclonal (HPS 645IIc)” value in assay [3] is given as 17.4%. The “Immunoreactivity Polyclonal (18/3)” value in assay [4] is 33.6%. The “Immunoreactivity Monoclonal 11P12” value in assay [5] was 17.1%.

For `CCC(C)C(NC(=O)C(C)NC(=O)CC(O)C(CC(C)C)NC(=O)C(CO)NC(=O)C(CC(C)C)NC(=O)C(Cc1c[nH]cn1)NC(=O)C1OC(OC2CC3(C)C(C(C)=O)CCC3C3CCC4=CC(=O)CCC4(C)C23)C(O)C(O)C1O)C(=O)N1CCCC1C(=O)N1CCCC1C(=O)NC(CCCCN)C(=O)NC(CCCCN)C(=O)O` (stereo not shown) [V] (X1-HLS[X2]AIPPKK-OH; configuration not given here), the Ki on Chymosin amounted to 0.052 µM; in assay [1] (Endothia, pH 6.0), 0.04 µM. Besides, the “Immunoreactivity Polyclonal (18/3)” value in assay [4] is listed as 9.5%. Besides, the “Immunoreactivity Monoclonal 11P12” value in assay [5] was determined as 31.8%.

As to `CCC(C)C(NC(=O)C(C)NC(=O)CC(O)C(CC(C)C)NC(=O)C(CO)NC(=O)C(CC(C)C)NC(=O)C1OC(OC2CC3(C)C(C(C)=O)CCC3C3CCC4=CC(=O)CCC4(C)C23)C(O)C(O)C1O)C(=O)N1CCCC1C(=O)N1CCCC1C(=O)NC(CCCCN)C(=O)NC(CCCCN)C(=O)O` (stereo not shown) [VI] (X1-LS[X2]AIPPKK-OH; configuration not given here), in assay [2], the “Immunoreactivity Polyclonal (HPS 53IIb)” value is 34%. Besides, the Ki on Chymosin came out at 0.02 µM; in assay [1] (Endothia, pH 6.0), 0.47 µM. Further, in assay [6] (1 pmol/well conjugate plus 1/50 antibody HPS53 IIb (FIG. 3)), the “milk clotting with conjugate in the presence of antibody” value is given as “clotting is restored”. Besides, the “milk clotting with conjugate in the presence of antibody and free progesterone” value in assay [6] (1 pmol/well conjugate, 1/50 antibody HPS53 IIb, progesterone 7.5 pmol/well (FIG. 3)) is recorded as “antibody restoration of clotting activity was impaired”. Moreover, the “modulation by antibody of the conjugate's inhibition of chymosin milk clotting activity” value in assay [6] (1 pmol/well conjugate, antiserum HPS 53-IIb at 1/50, 1/100, 1/200, chymosin dilutions 1/1000-1/1949 (FIG. 1)) is “can be modulated by the addition of antibody”. Moreover, the “chymosin required to give a visible clot (limiting concentration of chymosin necessary for clotting)” value in assay [6] (1 pmol/well of the inhibitor conjugate, no antibody, no progesterone, 1 h 37° C., control without additions 0.36 pmol/well) came out at 0.44 pmol/well. In addition, the “Immunoreactivity Polyclonal (18/3)” value in assay [4] is given as 16.4%. Further, in assay [5], the “Immunoreactivity Monoclonal 11P12” value came out at 3.8%.

Consider `CC(=O)[C@H]1CC[C@H]2[C@@H]3CCC4=CC(=O)CC[C@]4(C)[C@H]3CC[C@]12C` [Progesterone, reference compound], for which the “limiting concentration of chymosin necessary for clotting” value in assay [6] (progesterone alone, 7.5 pmol/well, no conjugate, compared with control 0.36 pmol/well) is “remains the same”.

Turning to `CC(=O)[C@H]1CC[C@H]2[C@@H]3CCC4=CC(=O)CC[C@]4(C)[C@H]3[C@H](OC3O[C@H](C(=O)O)[C@@H](O)[C@H](O)[C@H]3O)C[C@]12C` (stereo partly drawn) [I, Progesterone11α-glucuronide, reference compound], the “Immunoreactivity Polyclonal (18/3)” value in assay [4] was 92.1%. Also, in assay [5], the “Immunoreactivity Monoclonal 11P12” value worked out at 151%.

On to `CC(=O)[C@H]1CC[C@H]2[C@@H]3CCC4=CC(=O)CC[C@]4(C)[C@H]3[C@H](OCC(=O)O)C[C@]12C` [II, Progesterone11α-carboxymethylether, reference compound], for which the “Immunoreactivity Monoclonal 11P12” value in assay [5] is 77.4%.
